Experimental data published in ChEMBL document CHEMBL1201862, “PubChem BioAssay data set” (2004).
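Step 1: Grow cells in 96-well plates. Step 2: Expose to compound for 48 hours at 5 concentrations. Step 3: Interpolate endpoints linearly; if unreached, use highest concentration. GI50 marks 50% less growth.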 The source made the active and inactive calls. Cut-off read from the data, not from the text of the source: active = GI50 up to about 1.1 µM and inactive = higher.

Assays:
Assay in all cases: NCI tumour cell line growth inhibition, 48 h
TK-10 = tested on: TK-10
Hs-578T = tested on: Hs-578T
NCI-H23 = tested on: NCI-H23
A498 = tested on: A498
M14 = tested on: M14
CCRF-CEM = tested on: CCRF-CEM
SK-OV-3 = tested on: SK-OV-3
OVCAR-4 = tested on: OVCAR-4
HCT-15 = tested on: HCT-15
A549 = tested on: A549
COLO 205 = tested on: COLO 205
SK-MEL-2 = tested on: SK-MEL-2
HCT-116 = tested on: HCT-116
IGROV-1 = tested on: IGROV-1
UACC-257 = tested on: UACC-257
OVCAR-8 = tested on: OVCAR-8
786-0 = tested on: 786-0
SF-268 = tested on: SF-268
RXF 393 = tested on: RXF 393
KM12 = tested on: KM12
NCI-H460 = tested on: NCI-H460
SF-539 = tested on: SF-539
SN12C = tested on: SN12C
LOX IMVI = tested on: LOX IMVI
SNB-19 = tested on: SNB-19
U-251 = tested on: U-251
RPMI-8226 = tested on: RPMI-8226
NCI-H522 = tested on: NCI-H522
MDA-MB-435 = tested on: MDA-MB-435
CAKI-1 = tested on: CAKI-1
SF-295 = tested on: SF-295
MDA-N = tested on: MDA-N
SR = tested on: SR
NCI/ADR-RES = tested on: NCI/ADR-RES
HOP-62 = tested on: HOP-62
SW-620 = tested on: SW-620
MCF7 = tested on: MCF7
MDA-MB-231 = tested on: MDA-MB-231
ACHN = tested on: ACHN
SNB-75 = tested on: SNB-75
OVCAR-5 = tested on: OVCAR-5
DU-145 = tested on: DU-145
T47D = tested on: T47D
SK-MEL-28 = tested on: SK-MEL-28
OVCAR-3 = tested on: OVCAR-3
SK-MEL-5 = tested on: SK-MEL-5
HL-60 = tested on: HL-60
UACC-62 = tested on: UACC-62
BT-549 = tested on: BT-549
UO-31 = tested on: UO-31
EKVX = tested on: EKVX
Malme-3M = tested on: Malme-3M
HT-29 = tested on: HT-29
PC-3 = tested on: PC-3
K562 = tested on: K562
HCC 2998 = tested on: HCC 2998
MOLT-4 = tested on: MOLT-4
HOP-92 = tested on: HOP-92
NCI-H226 = tested on: NCI-H226

Measured: GI50

C/C(=N\Nc1nc2ccccc2s1)c1ccc2ccccc2n1
> 100 µM: HCT-15
active: IGROV-1 0.402 µM
inactive: TK-10 88.7 µM | Hs-578T 84.1 µM | NCI-H23 > 100 µM | A498 > 100 µM | M14 46.2 µM | CCRF-CEM 25.7 µM | SK-OV-3 > 100 µM | OVCAR-4 11.2 µM | A549 > 100 µM | COLO 205 75.7 µM | SK-MEL-2 58.5 µM | HCT-116 > 100 µM | UACC-257 > 100 µM | OVCAR-8 > 100 µM | 786-0 > 100 µM | SF-268 28.8 µM | RXF 393 26.4 µM | KM12 59.2 µM | NCI-H460 > 100 µM | SF-539 58.7 µM | SN12C > 100 µM | LOX IMVI > 100 µM | SNB-19 > 100 µM | U-251 > 100 µM | RPMI-8226 18.5 µM | NCI-H522 32.3 µM | MDA-MB-435 > 100 µM | CAKI-1 55.6 µM | SF-295 > 100 µM | MDA-N > 100 µM | SR 2 µM | NCI/ADR-RES > 100 µM | HOP-62 > 100 µM | SW-620 > 100 µM | MCF7 46.3 µM | MDA-MB-231 46 µM | ACHN > 100 µM | SNB-75 15.5 µM | OVCAR-5 91 µM | DU-145 > 100 µM | T47D 5.36 µM | SK-MEL-28 > 100 µM | OVCAR-3 34.8 µM | SK-MEL-5 30.2 µM | HL-60 23.2 µM | UACC-62 > 100 µM | BT-549 > 100 µM | UO-31 53.7 µM | EKVX 12.2 µM | Malme-3M 58.6 µM | HT-29 85.9 µM | PC-3 > 100 µM

COc1ncnc2c1cnn2Cc1cn(CCCCO)nn1
inactive: TK-10 > 100 µM | Hs-578T > 100 µM | NCI-H23 > 100 µM | A498 > 100 µM | M14 > 100 µM | CCRF-CEM > 100 µM | SK-OV-3 > 100 µM | OVCAR-4 > 100 µM | A549 > 100 µM | K562 > 100 µM | COLO 205 > 100 µM | SK-MEL-2 > 100 µM | HCT-116 > 100 µM | IGROV-1 > 100 µM | UACC-257 > 100 µM | OVCAR-8 > 100 µM | 786-0 > 100 µM | SF-268 > 100 µM | RXF 393 > 100 µM | KM12 > 100 µM | NCI-H460 > 100 µM | SF-539 > 100 µM | SN12C > 100 µM | HCC 2998 > 100 µM | LOX IMVI > 100 µM | SNB-19 > 100 µM | U-251 > 100 µM | RPMI-8226 > 100 µM | NCI-H522 > 100 µM | MDA-MB-435 > 100 µM | CAKI-1 > 100 µM | SF-295 > 100 µM | MDA-N > 100 µM | SR > 100 µM | NCI/ADR-RES > 100 µM | HOP-62 > 100 µM | SW-620 > 100 µM | MCF7 > 100 µM | MDA-MB-231 > 100 µM | ACHN > 100 µM | MOLT-4 > 100 µM | HOP-92 > 100 µM | OVCAR-5 > 100 µM | DU-145 > 100 µM | T47D > 100 µM | SK-MEL-28 > 100 µM | OVCAR-3 > 100 µM | SK-MEL-5 > 100 µM | UACC-62 > 100 µM | BT-549 > 100 µM | UO-31 > 100 µM | NCI-H226 > 100 µM | EKVX > 100 µM | Malme-3M > 100 µM | HT-29 > 100 µM | PC-3 > 100 µM
> 100 µM: HCT-15
